The source of these data is patent US20170216252A1, “ANTI-BACTERIAL PYRUVATE KINASE MODULATOR COMPOUNDS, COMPOSITIONS, USES AND METHODS” (SIMON FRASER UNIVERSITY, priority 2014, published 2017).

Converted amounts (≈) assume the structure as drawn.

One experiment relates to K. pneumoniae (C238). Briefly: Broth microdilution MIC. It counts as cell-based. The note with it: Klebsiella pneumoniae; K. pneumoniae (C238); read-out: MIC (μg/mL) A. The method, then: (§1) The antimicrobial activities of PK inhibitor candidates were determined using the 96-well microtiter standard 2-fold serial broth microdilution method as described by CLSI (formerly NCCLS) with the various gram-positive and gram-negative bacteria species mentioned above. Bacteria from a single colony were grown, overnight in either BHI Broth (VRE), mueller hinton broth (S. aureus 29213; MRSA USA400) or L-broth (E. coli, P. aeruginosa, S. typhimuriu, K. Pneumonia and A. baumannii). […] Culture plates were incubated for 18-24 h at 37° C., and optical density at 600 nm (OD600) was measured using a Benchmark Plus™ microplate spectrophotometer (Bio-Rad™). The absorbance control values for the series containing CAMHB and inhibitor were subtracted as background from the corresponding infected wells. The MIC was defined as the lowest concentration of test compound leading to complete inhibition of cell growth in relationship to compound-free control wells as determined by optical density. […] All assays were run in triplicate (Tables 1-6) or duplicate. Experiments were replicated at least twice to verify reproducibility using the above conditions.
(§2) The antimicrobial activity of selected compounds against the gram negative bacteria Klebsiella pneumoniae, Acinetobacter baumannii, E. coli, Pseudomonas aeruginosa and Salmonella typhimurium, as well as additional gram positive bacteria, including drug-resistant strains, was tested according to the procedures provided under “General Methodologies” above.

In the next experiment the test system is S. typhimurium (SL 1344). The experiment in a line: Broth microdilution MIC. Format: cell-based. To be noted: Salmonella enterica. Here is the method:
as §1, §2
On the technique in general: Broth dilution looks for growth in wells or tubes with falling amounts of substance.

With `O=C(c1c(-c2cc3cc(Cl)ccc3[nH]2)[nH]c2cc(Br)ccc12)C(F)(F)F` [Compound 178, 1-(6-bromo-5′-chloro-1H,1′H-[2,2′-biindol]-3-yl)-2,2,2-trifluoroethan-1-one], the MIC in the experiment on K. pneumoniae (C238) was 1 µg/mL (≈ 2.26 µM); against S. typhimurium (SL 1344), more than 64 µg/mL.
